Data published in publication PMC9785144, “Metal Coordination and Biological Screening of a Schiff Base Derived from 8-Hydroxyquinoline and Benzothiazole” (Pharmaceutics, 2022).
Where two headings read alike, the source gives them in different places.

Legend:
[1] = test system: HCT-116, A375, CT-26, B16F10 and HaCaT cell lines; experiment: Preliminary MTT antiproliferative screening on cell line panel; settings: 20 and 40 μM, 48 h
Experimental: The MTT [32] and Guava ViaCount assays [33, 34] were used to assess cell viability in the absence (negative control) or presence of increasing concentrations of [Ni(HL)(acetate)], [Ru(HL)Cl(DMSO)] and 5-FU (positive control). Briefly, cells were plated at a concentration of 5 × 10^4 cells/mL in 96-well plates (200 μL/well) and cultured for 24 h in the culture conditions described above. Afterwards, supernatant was removed, and cells were incubated with [Ni(HL)(acetate)] and [Ru(HL)Cl(DMSO)] at concentrations ranging from 0.5 to 40 μM or from 0.5 to 100 μM for the 5-FU (positive control). Negative controls were cells maintained in complete culture medium. After 48 h, culture medium was discarded, cells were washed twice with PBS and 50 μL of MTT at 0.5 mg/mL in incomplete medium was added to all wells. After a 2 to 3 h incubation period at 37 °C and 5% CO2 environment, 100 μL DMSO was added to each well to solubilise the formazan crystals, and absorbance was measured at 570 nm using a microplate reader Model 680 (Bio-Rad, CA, USA). Between three to four independent experiments were carried out, with six replicates per condition. GraphPad Prism®8 (GraphPad Software, San Diego, CA, USA) was used to analyse cell proliferation and values were plotted and fit to a standard log dose-response curve. The IC50 values were calculated using Equation (2) [35]:log IC50 = log X1 + {[(Y1 − (Y0)/2)]/(Y1 − Y2)} × (log X2 − log X1)(2) where, Y0/2 is the half-cell density of the negative control; Y1 is the cell density above Y0/2; X1 is the concentration corresponding to Y1; Y2 is the cell density below Y0/2; X2 is the concentration corresponding to Y2. The IC50 was determined by linear interpolation between X1 and X2.
Thus, to evaluate the antiproliferative properties of the newly synthetised metal complexes, a preliminary screening was performed using human (HCT-116 and A375) and murine (CT-26 and B16F10) colon cancer and melanoma cell lines, respectively. […]

[2] = UV-vis spectrophotometric titration for proton dissociation constants; format: physicochemical; settings: for pKa: 60% (v/v) DMSO/H2O solvent mixture, 60% (v/v) DMSO/H2O, I = 0.10 M (KCl), 25 °C
Experimental: The pH-potentiometric titrations for the calibration of the electrode system were performed in 30% (v/v) and 60% (v/v) DMSO/H2O solvent mixtures using 0.10 M KCl background electrolyte at 25.0 ± 0.1 °C as described in our previous works.
A Thermo Evolution 220 spectrophotometer was used to record the UV-visible (UV-vis) spectra in the 260 to 750 nm window. The path length was varied between 2 and 50 mm. As a result of the limited solubility of the compounds in water, the spectrophotometric titrations were performed to determine the proton dissociation constants (pKa) of the ligand and its complex at 5 μM concentration using 5 cm path length. Due to the light sensitivity of the studied compounds, the samples were covered and were kept in the dark during the titrations. The starting sample volume was 50 mL. These titrations were performed in the pH range 2.0–12.5 (30% (v/v) DMSO/H2O) and 2.0–14.0 (60% (v/v) DMSO/H2O). Samples were deoxygenated by bubbling purified argon through them for approximately 10 min prior to the measurements and argon was also passed over the solutions during the spectrophotometric titrations. Calculation of the proton dissociation constants was performed with the computer program PSEQUAD [28].
Titrations were performed first in 30% (v/v) DMSO/H2O mixture due to the limited water solubility of the ligand. The sample was protected from light and, for a given portion of the sample, the UV-vis spectrum was recorded only once. […] Following this experiment, the titration was repeated in 60% (v/v) DMSO/H2O mixture (Figure 7), and no precipitation was found in the whole pH range (1.73−13.67) under this condition. However, only three deprotonation steps were observed, most probably because one of the deprotonation steps was already completed at the starting pH.
To elucidate the pKa assignment, 2-hydrazinobenzothiazole (considered as a fragment of the title ligand) was titrated under similar conditions to monitor the spectral changes during the deprotonation of the benzothiazole moiety.

CT-26 colon cancer cells = experiment: MTT antiproliferative assay, CT-26; format: cell-based, murine; settings: CT-26, MTT, 48 h incubation
Experimental: (§1) Murine colon cancer CT-26 (ATCC® CRL-263™) cells were cultured in RPMI-1640, supplemented with 10% foetal bovine serum (FBS) and 100 IU/mL of penicillin and 100 μg/mL streptomycin (Gibco, Thermo Fisher Scientific, Waltham, MA, USA), hereafter designated as complete culture medium. Human colon cancer HCT-116 (ATCC® CCL-247™), human melanoma A375 (ATCC® CCL-1619™), murine melanoma B16F10 (ATCC® CCL-6475™) cells and human epidermal keratinocytes (HaCaT) were maintained in Dulbecco’s modified Eagle’s medium (DMEM) with high-glucose (4500 mg/L) (Sigma-Aldrich, St. Louis, MO, USA), supplemented with 10% FBS and 100 IU/mL of penicillin and 100 μg/mL streptomycin (Gibco, Thermo Fisher Scientific, Waltham, MA, USA), also designated as complete culture medium. The cell lines were maintained at 37 °C in a 5% CO2 environment and cells were trypsinised every 2–3 days when 80% confluence was reached.
(§2) Negative controls were cells maintained in complete culture medium.

[3] = test system: HCT-116 colon cancer cells; experiment: MTT antiproliferative assay, HCT-116; format: cell-based, human; settings: HCT-116, MTT, 48 h incubation
Experimental: as §1, §2

[4] = Light sensitivity in DMSO (UV-vis); format: physicochemical
Experimental: For the light sensitivity studies, DMSO solutions were prepared. The starting sample was separated equally for more portions, one was irradiated with diffuse light, while other portions were stored in the dark and measured only once.
The light sensitivity of H2L and its Ru-complex (as model metal compound) were tested by UV-vis spectrophotometry to further understand their behaviour. Samples were dissolved in DMSO and stored in the dark, while one portion was irradiated continuously by diffuse light. […] A relatively fast change is observed for the ligand in the first 1.5 h, and after that the spectrum has only minor changes (Figure 4A). […] Figure S16 depicts the spectral changes visible in Figure 4B. […] In the ligand, this may be due to a photoisomerisation process of the imine bond (Z/E isomers), which is quite common in hydrazones), but not in the Ru-complex, unless what is being observed in the complex solution is due to unbound ligand molecules.

[5] = target: bovine serum albumin (BSA) (Bos taurus, UniProt P02769); experiment: Albumin binding by fluorescence quenching and circular dichroism; settings: BSA ca. 20–25 μM, bands centred at ca. 360 nm, compound 5 to 70 μM
Experimental: The concentration of BSA in the experiments was ca. 1.5 μM (in aqueous PBS). The fluorescence emission spectra were recorded between 310 and 575 nm, with λex = 295 nm. Successive additions of the complexes were done directly to the cuvette (optical path 1 cm) and the fluorescence emission spectra were recorded for each one under the same conditions. Blank assays for each sample, consisting in solutions with the same concentration of complex and no BSA, were recorded and subtracted to the corresponding emission spectra containing the fluorophore. The UV-vis spectra of the sample solutions were used to correct the emission spectra, minimizing inner filter and reabsorption phenomena interference.
The concentration of BSA in the experiments was ca. 20–25 μM (in aqueous PBS). The circular dichroism (CD) spectra are an average of three scan accumulations, recorded between 300 and 500 nm, with bandwidth of 1 nm and response of 2 s, using a scanning speed of 100 nm/min. Successive additions of the complexes stock solutions in DMSO were done directly to the cuvette (1 cm) and the CD spectra were recorded under the same conditions after 10 min equilibration. Induced CD spectra were obtained as the CD spectrum of compound-BSA mixture minus the CD spectrum of BSA alone and are expressed as ellipticity in millidegrees.

[6] = Shake-flask n-octanol/buffer distribution coefficient (D7.4); format: physicochemical; settings: n-octanol/buffered aqueous solution, 25 °C, read-out: logD7.4
Experimental: The distribution coefficient values (D7.4) of the compounds were determined by the traditional shake-flask method in n-octanol/buffered aqueous solution at pH 7.40 (10 mM HEPES buffer, in the absence or in the presence of 0.10 M KCl) at 25.0 ± 0.2 °C. The samples and stock solutions were protected from light until the spectrophotometric concentration determination. The ligand and complex were dissolved at 150 and 100 μM concentrations in n-octanol, respectively. n-Octanol was presaturated with the HEPES solution with the given KCl concentration. The aqueous solution and n-octanol ratio was 9:1 (instead of the usual 1:1 ratio due to the high lipophilicity of the compounds). […] After separation, UV-vis spectra of the compounds in the n-octanol phase were recorded and compared to the spectra of the n-octanol stock solution. D7.4 values were calculated as in the following Equation (1): (1) D7.4=Aoct,1/Aoct,0−Aoct,1×Vwater phase/Voctanol phase where Aoct,0 and Aoct,1 are the absorbance values of the n-octanol phase before and after separation, respectively, Vwater phase and Voctanol phase are the volumes of the two phases.
The distribution coefficients (D7.4) for H2L and the Ru-complex (as model complex) were determined using HEPES buffer (pH = 7.4) for the aqueous phase. Distribution was measured in the absence and presence of 100 mM KCl. […]

HCT-116 cells [7] = experiment: Wound-healing migration assay, HCT-116; format: cell-based, human; settings: HCT-116, 12.5 μM, at 22 h (control 50%)
Experimental: To assess cellular migration in the presence or absence of tested compounds, HCT-116 and CT-26 cells were plated at 1.5 × 10^5 and 3 × 10^5 cells/mL in a 12-well plate (1 mL/well) and were allowed to adhere and grow until reaching around 80–90% confluence. A sterile 10 μL pipette tip was used to wound the cell monolayer, followed by a washing step with PBS to remove debris. Then, cells were incubated with the tested compounds suspended in RPMI-1640 (CT-26) or DMEM media (HCT-116) supplemented with 2% FBS and 100 IU/mL of penicillin and 100 μg/mL streptomycin (Gibco, Thermo Fisher Scientific, Waltham, MA, USA), and hereafter designated as RPMI 2% and DMEM 2%, respectively. Under the above mentioned culture conditions, CT-26 cells were incubated with [Ni(HL)(acetate)] or [Ru(HL)Cl(DMSO)] at concentrations of 10 and 15 μM, respectively. […] The positive control, 5-FU, was tested at 1.5 and 40 μM for CT-26 and HCT-116, respectively. Negative control group was constituted by cells maintained in RPMI 2% (CT-26) and DMEM 2% (HCT-116). Images of the wound closure were taken beneath the stage of a Zeiss Axiovert 200 inverted microscope, using a 10× objective and a digital camera (CoolSNAP EZ, Photometrics, Huntington Beach, CA, USA) and recorded by the Metafluor Software at 0, 2, 4, 8, 18, 20 and 22 h following cell monolayer scratching (Molecular Devices, Sunnyvale, CA, USA). […]

HCT-116 cells [8] = experiment: Cell cycle analysis by PI flow cytometry, HCT-116; format: cell-based, human; settings: HCT-116, 24 h, sub-toxic concentrations
Experimental: (§3) To understand the potential effects of [Ni(HL)(acetate)] and [Ru(HL)Cl(DMSO)] on cell cycle progression, CT-26 and HCT-116 cells were used. Briefly, cells were plated at a density of 5 × 10^4 cells/mL in 6-well plates (2 mL) and allowed to grow for 24 h at 37 °C with 5% CO2. CT-26 cells were then incubated with [Ni(HL)(acetate)] or [Ru(HL)Cl(DMSO)] at concentrations of 5 and 10 μM or 10 and 20 μM, respectively. For HCT-116 cell line, the tested concentrations were 5 and 7.5 μM, and 7.5 and 12.5 μM for [Ni(HL)(acetate)] and [Ru(HL)Cl(DMSO)], respectively. The positive control group, 5-FU, was tested at 0.5 and 2 μM and 20 and 40 μM for CT-26 and HCT-116, respectively. Negative control group was constituted by cells in the presence of complete culture medium. After a 24 h incubation period, cells were collected by centrifugation at 850× g for 5 min at 4 °C, suspended in 500 µL of ice-cold PBS, and fixed with 500 µL ice-cold 80% ethanol (−20 °C), added drop-by-drop, under gentle mixing. Prior to the analysis, samples were kept at 4 °C for at least 16 h. […] The ModFit LT™ 5.0 software was used to analyse the data and the percentages of cells in each cell cycle phase was determined (Verity Software House, Topsham, ME, USA).

CT-26 cells = experiment: Cell cycle analysis by PI flow cytometry, CT-26; format: cell-based, murine; settings: CT-26, 24 h, sub-toxic concentrations
Experimental: as §3

Chain of bovine serum albumin (BSA) (P02769 25-607): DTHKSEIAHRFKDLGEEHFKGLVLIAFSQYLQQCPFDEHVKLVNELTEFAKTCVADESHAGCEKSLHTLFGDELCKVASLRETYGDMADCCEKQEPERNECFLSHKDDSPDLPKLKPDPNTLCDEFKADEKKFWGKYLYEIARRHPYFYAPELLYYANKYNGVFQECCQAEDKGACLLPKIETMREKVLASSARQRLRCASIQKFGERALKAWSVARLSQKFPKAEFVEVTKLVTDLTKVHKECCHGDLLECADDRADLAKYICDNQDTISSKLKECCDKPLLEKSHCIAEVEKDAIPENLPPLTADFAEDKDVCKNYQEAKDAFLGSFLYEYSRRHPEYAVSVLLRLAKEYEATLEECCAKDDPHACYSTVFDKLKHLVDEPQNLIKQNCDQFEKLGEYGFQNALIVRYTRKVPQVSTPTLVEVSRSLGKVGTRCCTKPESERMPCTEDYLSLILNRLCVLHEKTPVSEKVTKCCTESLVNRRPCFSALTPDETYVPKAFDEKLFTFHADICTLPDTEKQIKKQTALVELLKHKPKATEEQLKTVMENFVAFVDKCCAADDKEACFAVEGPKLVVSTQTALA

SMILES: NNc1nc2ccccc2s1 [2-Hydrazinobenzothiazole, 2-hydrazinobenzothiazole, reference compound]
- antiproliferative / cytotoxic effect in preliminary screening [1]: no effect
- pKa ([2]; read-out: pKa2): 3.35 ± 0.03
- pKa ([2]; read-out: pKa3): 10.35 ± 0.03
- pKa ([2]; read-out: pKa4): 12.86 ± 0.03

SMILES: Oc1cccc2ccc(/C=N/Nc3nc4ccccc4s3)nc12 [H2L, (E)-2-((2-(benzo[d]thiazol-2-yl)Hydrazono)Methyl)Quinolin-8-ol]
- IC50 (CT-26 colon cancer cells; Mus musculus, CT26): 1.8 ± 0.4 µM
- IC50 ([3]; Homo sapiens): 3 ± 0.8 µM
- light sensitivity ([4]; irradiated continuously by diffuse light): strong light sensitivity
- spectral changes in the dark ([4]; stored in the dark, 4 days of monitoring): only a small change
- antiproliferative / cytotoxic effect in preliminary screening [1]: high cytotoxicity
- pH range of precipitation ([2]; 30% (v/v) DMSO/H2O, 5 μM): 3.8−11.0
- pKa ([2]; read-out: pKa2): 1.99 ± 0.03
- pKa ([2]; read-out: pKa3): 9.09 ± 0.04
- pKa ([2]; read-out: pKa4): 12.99 ± 0.04
- induced CD bands with BSA [5]: high intensity induced CD bands
- logD at 4 h ([6]; pH 7.4, n-octanol/10 mM HEPES pH 7.4, 0 mM KCl): 2.8
- logD at 4 h ([6]; pH 7.4, n-octanol/10 mM HEPES pH 7.4, 100 mM KCl): 3

SMILES: O=Cc1ccc2cccc(O)c2n1 [HQ2CHO, 2-carbaldehyde-8-hydroxyquinoline]
- antiproliferative / cytotoxic effect in preliminary screening [1]: cytotoxicity against the human melanoma and colon cancer cell lines

SMILES: CC(=O)[O][Ni][O]c1cccc2ccc(C=NNc3nc4ccccc4s3)nc12 [[Ni(HL)(acetate)]]
- IC50 (CT-26 colon cancer cells): 11 ± 2.3 µM
- maximum wound closure (HCT-116 cells [7]): 32%
- cell cycle arrest (HCT-116 cells [8]): no such effect
- IC50 [3]: 8.6 ± 2 µM
- cell cycle arrest (CT-26 cells): arrested cell cycle at S phase
- induced CD bands with BSA [5]: high intensity induced CD bands
